From patent US20250171431A1, “HETEROCYCLIC INHIBITORS OF IGF-1R FOR TREATMENT OF DISEASE” (HORIZON THERAPEUTICS IRELAND DAC, priority 2023, published 2025)

Molecular target: IGF-1R (Homo sapiens (Human), UniProt P08069)
Experiment: Example B-1: IGF-1R Assay (PC3 cells, IGF1 stimulation, AlphaLISA)
Assay type: cell-based
Conditions: 200 ng/mL IGF1 stimulation, read-out: Biological Activity against IGF-1R IC50
Method in brief: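 Readout is AlphaLISA signal from lysed PC3 cells, expressed as % inhibition versus vehicle and EC80 controls and banded by IC50. Before lysis, the cells were starved of serum for 2 h, exposed to 3× serially diluted compound for 2 h, and stimulated for 30 min with 200 ng/mL IGF1 (final).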

Chain of IGF-1R (P08069 31-1367): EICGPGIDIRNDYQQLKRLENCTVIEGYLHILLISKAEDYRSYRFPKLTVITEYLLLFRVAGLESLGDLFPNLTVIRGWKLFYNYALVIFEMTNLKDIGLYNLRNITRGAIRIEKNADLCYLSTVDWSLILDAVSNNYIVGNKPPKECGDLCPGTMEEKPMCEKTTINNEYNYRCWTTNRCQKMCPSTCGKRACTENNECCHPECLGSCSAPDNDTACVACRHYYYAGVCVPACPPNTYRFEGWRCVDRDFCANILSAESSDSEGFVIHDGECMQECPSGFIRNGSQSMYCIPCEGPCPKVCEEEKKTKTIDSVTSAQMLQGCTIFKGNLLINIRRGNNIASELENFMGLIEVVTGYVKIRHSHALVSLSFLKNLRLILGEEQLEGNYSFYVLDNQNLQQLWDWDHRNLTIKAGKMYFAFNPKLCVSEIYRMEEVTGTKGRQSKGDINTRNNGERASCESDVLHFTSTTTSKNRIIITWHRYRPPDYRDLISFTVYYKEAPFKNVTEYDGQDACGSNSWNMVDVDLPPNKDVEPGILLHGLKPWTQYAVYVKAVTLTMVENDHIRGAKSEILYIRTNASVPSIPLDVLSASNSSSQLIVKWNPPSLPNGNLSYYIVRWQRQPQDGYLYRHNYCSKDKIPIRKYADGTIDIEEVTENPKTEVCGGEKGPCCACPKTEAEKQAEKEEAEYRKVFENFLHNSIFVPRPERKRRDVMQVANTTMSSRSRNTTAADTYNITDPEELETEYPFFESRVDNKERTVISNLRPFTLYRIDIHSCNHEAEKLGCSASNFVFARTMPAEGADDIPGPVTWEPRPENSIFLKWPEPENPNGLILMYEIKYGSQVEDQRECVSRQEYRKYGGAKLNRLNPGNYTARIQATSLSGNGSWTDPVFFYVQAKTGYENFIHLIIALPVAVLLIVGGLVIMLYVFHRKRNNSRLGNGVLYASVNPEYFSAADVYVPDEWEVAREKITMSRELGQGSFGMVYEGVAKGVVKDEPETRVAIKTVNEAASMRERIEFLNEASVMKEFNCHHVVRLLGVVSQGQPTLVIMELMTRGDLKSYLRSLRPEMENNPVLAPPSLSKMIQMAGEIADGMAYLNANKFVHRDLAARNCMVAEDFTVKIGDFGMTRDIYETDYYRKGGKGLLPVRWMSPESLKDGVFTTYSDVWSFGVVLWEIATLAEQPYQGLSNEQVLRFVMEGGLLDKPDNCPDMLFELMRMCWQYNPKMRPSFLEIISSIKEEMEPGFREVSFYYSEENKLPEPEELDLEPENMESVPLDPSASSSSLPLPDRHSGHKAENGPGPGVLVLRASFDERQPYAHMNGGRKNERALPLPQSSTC

SMILES	IC50
COc1cc(Nc2ncc(F)c(Nc3cc4ccccc4nc3C(N)=O)n2)ccc1O[C@H]1C[C@@H](N(C)C)C1 [Compound 193, 3-(5-fluoro-2-{3-methoxy-4-[(1s,3s)-3-(dimethylamino)cyclobutoxy]phenylamino}-4-pyrimidinylamino)-2-quinolinecarboxamide]	≤ 500 nM
COc1ccc2cc(Nc3ccnc(Nc4ccc(O[C@H]5C[C@H](N6CCCCC6)C5)cc4)n3)cnc2c1 [Compound 354, 4-(7-methoxy-3-quinolylamino)-2-{p-[(1r,3r)-3-piperidinocyclobutoxy]phenylamino}pyrimidine]	2000 to 10000 nM
COc1ccc2cc(Nc3ccnc(Nc4ccc(O[C@H]5C[C@H](N(C)C)C5)c(OC)c4)n3)cnc2c1 [Compound 337, 4-(7-methoxy-3-quinolylamino)-2-{3-methoxy-4-[(1r,3r)-3-(dimethylamino)cyclobutoxy]phenylamino}pyrimidine]	≤ 500 nM
COc1cc(Nc2nccc(Nc3cnc4ccc(Cl)nc4c3)n2)ccc1O[C@H]1C[C@H](N(C)C)C1 [Compound 285, 4-(6-chloro-1,5-diaza-3-naphthylamino)-2-{3-methoxy-4-[(1r,3r)-3-(dimethylamino)cyclobutoxy]phenylamino}pyrimidine]	≤ 500 nM
COc1cc(Nc2nccc(Nc3cnc4c(c3)OCCO4)n2)cnc1O[C@H]1C[C@@H](N(C)C)C1 [Compound 276, 4-(2,3-dihydro-1,4-dioxa-5-aza-7-naphthylamino)-2-{5-methoxy-6-[(1s,3s)-3-(dimethylamino)cyclobutoxy]-3-pyridylamino}pyrimidine]	≤ 500 nM
COc1cc(Nc2nccc(Nc3cnc4c(F)cccc4c3)n2)cnc1O[C@H]1C[C@@H](N(C)C)C1 [Compound 270, 4-(8-fluoro-3-quinolylamino)-2-{5-methoxy-6-[(1s,3s)-3-(dimethylamino)cyclobutoxy]-3-pyridylamino}pyrimidine]	≤ 500 nM
COc1cc(Nc2nccc(Nc3cc4ccccc4[nH]c3=O)n2)ccc1O[C@H]1C[C@H](N(C)C)C1 [Compound 249, 3-(2-{3-methoxy-4-[(1r,3r)-3-(dimethylamino)cyclobutoxy]phenyl-amino}-4-pyrimidinylamino)-2(1H)-quinolinone]	≤ 500 nM
COc1cc(Nc2nccc(Nc3cnc4cc(Br)ccc4c3)n2)ccc1O[C@H]1C[C@H](N(C)C)C1 [Compound 328, 4-(7-bromo-3-quinolylamino)-2-{3-methoxy-4-[(1r,3r)-3-(dimethylamino)cyclobutoxy]phenylamino}pyrimidine]	≤ 500 nM
COc1cc(Nc2nccc(Nc3cc4ccccc4nc3C(N)=O)n2)cnc1O[C@H]1C[C@@H](N(C)C)C1 [Compound 172, 3-((2-((6-((1s,3s)-3-(dimethylamino)cyclobutoxy)-5-methoxypyridin-3-yl)amino)pyrimidin-4-yl)amino)quinoline-2-carboxamide]	≤ 500 nM
COc1cc(Nc2nccc(Nc3cnc4[nH]ccc4c3)n2)ccc1O[C@H]1C[C@@H](N(C)C)C1 [Compound 301, 4-(1H-1,7-diazainden-5-ylamino)-2-{3-methoxy-4-[(1s,3s)-3-(dimethylamino)cyclobutoxy]phenylamino}pyrimidine]	≤ 500 nM
COc1cc(Nc2nccc(Nc3cc4ccc(F)cc4[nH]c3=O)n2)ccc1O[C@H]1C[C@@H](N(C)C)C1 [Compound 122, 7-fluoro-3-(2-{3-methoxy-4-[(1s,3s)-3-(dimethylamino)cyclobutoxy]phenyl-amino}-4-pyrimidinylamino)-1,2-dihydro-2-quinolinone]	≤ 500 nM
COc1cc(Nc2nccc(Nc3cnc4c(OC(F)(F)F)cccc4c3)n2)ccc1O[C@H]1C[C@H](N(C)C)C1 [Compound 7, 2-{3-methoxy-4-[(1r,3r)-3-(dimethylamino)cyclobutoxy]phenylamino}-4-(8-trifluoromethoxy-3-quinolylamino)pyrimidine]	≤ 500 nM
COc1cc(Nc2nccc(Nc3cnc4cc(NC(C)=O)ccc4c3)n2)ccc1O[C@H]1C[C@@H](N(C)C)C1 [Compound 9, N-[3-(2-{3-methoxy-4-[(1s,3s)-3-(dimethylamino)cyclobutoxy]phenylamino}-4-pyrimidinylamino)-7-quinolyl]acetamide]	≤ 500 nM
COc1cc(Nc2nccc(Nc3ncc4ccc(Br)cc4n3)n2)ccc1O[C@H]1C[C@@H](N(C)C)C1 [Compound 307, 4-(7-bromo-2-quinazolinylamino)-2-{3-methoxy-4-[(1s,3s)-3-(dimethylamino)cyclobutoxy]phenylamino}pyrimidine]	2000 to 10000 nM
COc1cc(Nc2nccc(Nc3cc(Cl)cnc3C(N)=O)n2)ccc1O[C@H]1C[C@@H](N(C)C)C1 [Compound 198, 5-chloro-3-(2-{3-methoxy-4-[(1s,3s)-3-(dimethylamino)cyclobutoxy]phenylamino}-4-pyrimidinylamino)-2-pyridinecarboxamide]	≤ 500 nM

More lines, now with the values ahead:

IC50	SMILES
≤ 500 nM	COc1cc(Nc2nccc(Nc3cc4cccc(F)c4[nH]c3=O)n2)cnc1N1CC2(COC2)C1 [Compound 234, 8-fluoro-3-(2-{5-methoxy-6-(2-oxa-6-aza-6-spiro[3.3]heptyl)-3-pyridylamino}-4-pyrimidinylamino)-1,2-dihydro-2-quinolinone]
500 to 2000 nM	COc1ccc2cc(Nc3ccnc(Nc4ccc(OCCCN5CCS(=O)(=O)CC5)cc4)n3)cnc2c1 [Compound 400, 4-(3-{p-[4-(7-methoxy-3-quinolylamino)-2-pyrimidinylamino]phenoxy}propyl)-1λ^6,4-thiazinane-1,1-dione]
≤ 500 nM	CC1(C)COc2cc(Nc3ccnc(Nc4ccc(OCCCN5CCOCC5)cc4)n3)cnc2O1 [Compound 65, 4-(3,3-dimethyl-2,3-dihydro-1,4-dioxa-5-aza-7-naphthylamino)-2-[p-(3-morpholinopropoxy)phenylamino]pyrimidine]
≤ 500 nM	COc1cc(Nc2nccc(Nc3cnc4c(c3)CCCCC4)n2)ccc1OCCCN1CCCCC1 [Compound 57, 4-{8-azabicyclo[5.4.0]undeca-1(11),7,9-trien-10-ylamino}-2-[3-methoxy-4-(3-piperidinopropoxy)phenylamino] pyrimidine]
≤ 500 nM	COc1cc(N2CCN(CC#N)CC2)ncc1Nc1ncc(F)c(Nc2cc3ccccc3nc2C(N)=O)n1 [Compound 493, 3-(2-{6-[4-(cyanomethyl)-1-piperazinyl]-4-methoxy-3-pyridylamino}-5-fluoro-4-pyrimidinylamino)-2-quinolinecarboxamide]
≤ 500 nM	COc1cc(Nc2nccc(Nc3cc4cccc(F)c4nc3O)n2)cnc1OC1CCNCC1 [Compound 261, 8-fluoro-3-{2-[5-methoxy-6-(4-piperidyloxy)-3-pyridylamino]-4-pyrimidinylamino}-2-quinolinol]
> 10000 nM	COc1cc(Nc2nccc(Nc3cnc4cc(F)c(F)cc4c3)n2)cnc1N1CCNC(=O)C1 [Compound 471, 4-{5-[4-(6,7-difluoro-3-quinolylamino)-2-pyrimidinylamino]-3-methoxy-2-pyridyl}-2-piperazinone]
≤ 500 nM	COc1ccc2cc(Nc3ccnc(Nc4ccc(OCCCN5CCCCC5)c(OC)c4)n3)ccc2c1 [Compound 444, 4-(6-methoxy-2-naphthylamino)-2-[3-methoxy-4-(3-piperidinopropoxy)phenylamino] pyrimidine]
2000 to 10000 nM	COc1ccc2cc(Nc3ccnc(Nc4ccc(OCCCN5CCOCC5)cc4)n3)cnc2c1 [Compound 406, 4-(7-methoxy-3-quinolylamino)-2-[p-(3-morpholinopropoxy)phenylamino]pyrimidine]
500 to 2000 nM	O=S1(=O)CCN([C@H]2C[C@H](Oc3ccc(Nc4nccc(Nc5cnc6c(c5)C5CCC6C5)n4)cc3)C2)CC1 (stereo partly drawn) [Compound 351, 4-[(1r,3r)-3-[p-(4-{3-azatricyclo[6.2.1.02,7]undeca-2(7),3,5-trien-5-ylamino}-2-pyrimidinylamino)phenoxy]cyclobutyl]-1λ^6,4-thiazinane-1,1-dione]
≤ 500 nM	COc1cc(Nc2nccc(Nc3cc4cccc(F)c4[nH]c3=O)n2)cnc1N1CCN(CC(F)(F)F)CC1 [Compound 232, 8-fluoro-3-(2-{5-methoxy-6-[4-(2,2,2-trifluoroethyl)-1-piperazinyl]-3-pyridylamino}-4-pyrimidinylamino)-1,2-dihydro-2-quinolinone]
500 to 2000 nM	COc1cc(Nc2nccc(Nc3cnc4cc(F)c(F)cc4c3)n2)cnc1N1CC2CCC(C1)O2 [Compound 126, 4-(6,7-difluoro-3-quinolylamino)-2-{5-methoxy-6-(8-oxa-3-azabicyclo[3.2.1]oct-3-y1)-3-pyridylamino}pyrimidine]
≤ 500 nM	c1ccc2ncc(Nc3ccnc(Nc4ccc(OCCCN5CCOCC5)cc4)n3)cc2c1 [Compound 394, 2-[p-(3-morpholinopropoxy)phenylamino]-4-(3-quinolylamino)pyrimidine]
≤ 500 nM	c1ccc2ncc(Nc3ccnc(Nc4ccc(O[C@H]5CC[C@@H](N6CCOCC6)CC5)cc4)n3)cc2c1 [Compound 39, 4-(3-quinolylamino)-2-{p-[(1s, 4s)-4-morpholinocyclohexyloxy]phenylamino}pyrimidine]
≤ 500 nM	O=S1(=O)CCN(CCCOc2ccc(Nc3nccc(Nc4cnc5c(Cl)cccc5c4)n3)cc2)CC1 [Compound 398, 4-(3-{p-[4-(8-chloro-3-quinolylamino)-2-pyrimidinylamino]phenoxy}propyl)-1λ^6,4-thiazinane-1,1-dione]
≤ 500 nM	O=S1(=O)CCN(CCCOc2ccc(Nc3nccc(Nc4cnc5c(c4)OCCO5)n3)cc2)CC1 [Compound 506, 4-(3-{p-[4-(2,3-dihydro-1,4-dioxa-5-aza-7-naphthylamino)-2-pyrimidinylamino]phenoxy}propyl)-1λ^6,4-thiazinane-1,1-dione]
500 to 2000 nM	COc1cc(Nc2nccc(Nc3ccc4c(c3)CCN(C)C4)n2)ccc1OCCCN1CCCCC1 [Compound 450, 2-[3-methoxy-4-(3-piperidinopropoxy)phenylamino]-4-(2-methyl-1,2,3,4-tetrahydro-6-isoquinolylamino) pyrimidine]
≤ 500 nM	CN(C)[C@H]1CC[C@@H](Oc2ccc(Nc3nccc(Nc4cnc5ccc(Cl)cc5c4)n3)cc2)CC1 [Compound 310, 4-(6-chloro-3-quinolylamino)-2-{p-[(1s,4s)-4-(dimethylamino)cyclohexyloxy]phenylamino}pyrimidine]
